The record followed here is ChEMBL document CHEMBL4376815, “The Development Process for Discovery and Clinical Advancement of Modern Antimalarials” (J Med Chem, 2019).

Values after ≈ are worked out from the molar mass of the structure shown.

Data set [1] deals with Plasmodium falciparum. As to the kind of experiment: Antimalarial activity against Plasmodium falciparum infected in po dosed human assessed as reduction in parasite growth. The class given is functional.
In data set [2] the test system is Plasmodium falciparum. The data set can be described thus: Antimalarial activity against Plasmodium falciparum 7G8 infected in human erythrocytes assessed as reduction in [3H]-hypoxanthine incorporation incubated for 48 hrs followed by addition of [3H]-hypoxanthine and measured after 24 hrs by liquid scintillation counting method. The class given is functional, organism-based.

The nature of data set [3]: AUC (infinity) in rat at 23.7 mg/kg, po and measured up to 24 hrs by LC/MS analysis. To be noted: in vivo. Further details: dose 23.7 mg/kg, route oral, time infinity. The class given is ADME, organism-based.
A short description of data set [4]: AUC (0 to 24 hrs) in human at 300 mg, po by LC-MS/MS analysis. The settings on record: in vivo.
Data set [5] can be described thus: Volume of distribution in Wistar Hannover rat at 5 mg/kg, iv by LC-MS/MS analysis. To be noted: in vivo. The class given is ADME, organism-based.
The next data set deals with Plasmodium vivax. As to the kind of experiment: Antimalarial activity against Plasmodium vivax infected in human assessed as parasite clearance time at 30 mg/kg, po administered daily for 3 consecutive day and measured on day 5. The class given is functional.
A short description of data set [6]: Clearance in Beagle dog at 1 mg/kg, iv by LC-MS/MS analysis. The class given is ADME, organism-based, Canis lupus familiaris. The settings on record: in vivo.
A short description of data set [7]: Half life in Beagle dog at 1 mg/kg, iv by LC-MS/MS analysis. To be noted: in vivo.
Data set [8] in a line: Oral bioavailability in Beagle dog at 3 mg/kg by LC-MS/MS analysis. The settings on record: in vivo. The class given is ADME, organism-based, Canis lupus familiaris.
The nature of data set [9]: AUC (0 to 24 hrs) in human at 150 mg, po for 3 days and measured on day 1 by LC-MS/MS analysis. To be noted: in vivo.
Data set [10] can be described thus: Tmax in Beagle dog at 3 mg/kg, po by LC-MS/MS analysis. It is filed as ADME, organism-based, Canis lupus familiaris. The settings on record: in vivo.
In data set [11] the test system is Plasmodium berghei. As to the kind of experiment: Antimalarial activity against Plasmodium berghei infected in NMRI mouse assessed as reduction in parasite growth at 30 mg/kg, po administered daily for 3 consecutive days by flow cytometric analysis relative to control. It is filed as functional. Set-up: scale not given: the % may be the effect or the level left. Background: Flow cytometry measures light scatter and fluorescence of single cells or particles in a stream.

Data set [12] relates to Plasmodium berghei. As to the kind of experiment: Antimalarial activity against Plasmodium berghei infected in NMRI mouse assessed as mean survival days at 30 mg/kg, po administered once and measured up to 30 days. It is filed as functional.
Data set [13] is described as follows: Cmax in Beagle dog at 3 mg/kg, po by LC-MS/MS analysis. It is filed as ADME, organism-based, Canis lupus familiaris. Set-up: dose 3 mg/kg, route oral. The settings on record: in vivo.
Data set [14] in a line: Half life in human at 300 mg/kg, po by LC-MS/MS analysis. To be noted: in vivo.
A further data set can be described thus: in vivo. To be noted: mouse, po, 24.6 mg/kg.
In data set [15] the test system is Plasmodium berghei. As to the kind of experiment: Antimalarial activity against Plasmodium berghei infected in NMRI mouse assessed as reduction in parasite growth at 5.3 mg/kg, po administered daily for 3 consecutive days by flow cytometric analysis relative to control. It is filed as functional. Further details: scale not given: the % may be the effect or the level left.

Data set [16] in a line: Oral bioavailability in mouse at 24.6 mg/kg and measured up to 24 hrs by LC/MS analysis. The class given is ADME, organism-based. To be noted: in vivo.
Data set [17] concerns Plasmodium falciparum. The data set can be described thus: Antimalarial activity against Plasmodium falciparum infected in human assessed as median clearance time at 30 mg/kg, po administered daily for 3 consecutive day and measured on day 5. The class given is functional.
Data set [18] relates to Plasmodium falciparum. As to the kind of experiment: Antimalarial activity against Plasmodium falciparum NF54 infected in human erythrocytes assessed as reduction in [3H]-hypoxanthine incorporation incubated for 48 hrs followed by addition of [3H]-hypoxanthine and measured after 24 hrs by liquid scintillation counting method. The class given is functional, organism-based.

Data set [19] is described as follows: Half life in Wistar Hannover rat at 5 mg/kg, iv by LC-MS/MS analysis. To be noted: in vivo.

Description for in vivo: Half life in mouse at 24.6 mg/kg, po and measured up to 24 hrs by LC/MS analysis

Usually MIC stands for the least concentration at which growth counts as inhibited. The EC50 is the midpoint of the concentration-response curve. The AUC(0-inf) is total exposure, with the tail of the curve extrapolated. The term AUC(0-t) denotes the area under the concentration-time curve up to a stated or last time point. As usually defined, the Vd is the apparent volume that relates the amount in the body to the concentration in plasma or blood. As a reminder, the clearance is the volume of plasma or blood freed of the substance per unit of time. What is called half-life is the time in which the quantity being followed falls by half. As usually defined, the bioavailability is the share of a dose that reaches the circulation, judged against a reference dose that is usually intravenous. Usually Tmax stands for the time at which the peak concentration occurs. By Cmax is commonly meant the highest concentration seen after dosing. With `C[C@H]1Cc2c([nH]c3cc(Cl)c(F)cc23)[C@@]2(N1)C(=O)Nc1ccc(Cl)cc12` [CIPARGAMIN], in the data set on Plasmodium falciparum [1], the MIC was determined as 0.126 ng/mL (≈ 0.323 nM). Also, the EC50 in the data set with Plasmodium falciparum [2] and in the data set with Plasmodium falciparum [18] was 0.5 to 1.4 nM in each case. The same molecule showed an AUC(0-inf) in data set [3] of 524 µM·h. For the same molecule, the area under the curve AUC(0-t) at 24 h in data set [4] worked out at 36000 ng·h/mL; in data set [9] it was 15000 ng·h/mL. In [5], the Vd came to 3.18 L/kg. Further, the Time in the data set on Plasmodium vivax was 30 h; with Plasmodium falciparum [17], 16 h. The clearance in data set [6] was 3.35 mL/min/kg. For the same molecule, the figures for the half-life in data set [7], in data set [14] and in [19] were 10.9 h, 24 h and 8.2 h, respectively. For the same molecule, the results for the bioavailability in data set [8] and in data set [16] were 68% and 100%, respectively. For the same molecule, in data set [10], the Tmax was found to be 1.7 h. In addition, the Activity is 90% in the data set on Plasmodium berghei [11] and 99% with Plasmodium berghei [15]. The MSD with Plasmodium berghei [12] came to 24.1 days. Besides, in [13], the Cmax is 868 ng/mL. The molecule also showed a half-life at 24 h in the data set “in vivo” of 10 h.
